≈ marks a conversion by molar mass, not a printed value. Like-named read-outs stand apart in the source and are kept apart here. Where a SMILES comes first, the peptide text is derived from it. Bridges are numbered along the chain shown (N, C = ends). The star is where a group is joined. Palmitoyl = CCCCCCCCCCCCCCCC(=O)*
Legend:
[1] = RP-HPLC determination of peptide hydrophobicity; assay type: physicochemical; settings: 0.1% TFA; for reduced retention time t’R: RP-HPLC retention as measure of hydrophobicity, Waters X-Bridge Shield RP-18 3.0 × 100 mm, 3.5 μm, linear 20–65% acetonitrile in water over 30 min, 0.5 mL/min, 25.0 °C, UV 214 nm, 1 g/L, triplicate; for ∆tR: tR of cyclic analog − tR of parent lipopeptide, RP-HPLC, RP-18, 20–65% acetonitrile over 30 min
Procedure: The peptides were analyzed by RP-HPLC to determine relative hydrophobicity vs. retention time of each compound. In general, more hydrophobic lipopeptides will elute later than hydrophilic ones. Using this simple rule enables comparison of hydrophobicity by reduced retention times (t’R) and differences in retention time between the cyclic analog and its linear parent lipopeptide (Table 1). It can be deduced that the presence of cystine moiety has led to increased hydrophobicity. All cyclic lipopeptides are more hydrophobic than their linear counterparts but the effect of disulfide cyclization on retention is different in each pair. The highest increase in retention was noticed for the shortest lipopeptides L1 (C16-KKK-NH2) and C1 (C16-CKKKC-NH2). The differences between lipopeptides with one arginine residue indicate that its position is crucial for retention and therefore hydrophobicity. To learn how the arginine position affects hydrophobicity, the retention time of compound L2 (C16-KKKK-NH2) or C2 (C16-CKKKKC-NH2) was subtracted from that of the lipopeptides with one arginine residue, linear (L3, L4, L5, L6) or cyclic (C3, C4, C5, C6), respectively. In Figure 2 the effect of arginine position on retention time is related to unsubstituted lipopeptide.
To determine peptide hydrophobicity, a Waters Alliance e2695 system with a Waters 2998 PDA Detector (software-Empower 3, Waters, Milford, MA, USA) was used. All analyses were carried out on a Waters X-Bridge Shield RP-18 column (3.0 × 100 mm, 3.5 μm particle size, 130 Å pore size). The Shield Technology column with embedded polar groups was used to minimize interactions of unreacted silanol groups with basic lipopeptides. The peptides were dissolved in water (0.1% TFA, v/v) up to a concentration of 1 g/L. UV detection at 214 nm was used, and samples (10 μL) were eluted with a linear 20–65% acetonitrile gradient in deionized water over 30 min at 25.0 ± 0.1 °C. The mobile phase flow rate was 0.5 mL/min. Both eluents contained 0.1% (v/v) of TFA. Each peptide sample was analyzed in triplicate. Maximum standard deviation and coefficient of variation were 0.042 and 0.25%, respectively.

[2] = tested on: Staphylococcus aureus ATCC 25923; settings: values marked *: performed by the group in the previous study; ref [29]; cited from earlier work
From the text: Table 2 Antimicrobial activity of lipopeptides. | column: MIC (μg/mL) / S. aureus

[3] = tested on: Staphylococcus aureus ATCC 25923; settings: values marked *: performed by the group in the previous study; ref [29]; cited from earlier work; remark: listed apart in the source
From the text: Table 3 Antibiofilm activity of lipopeptides. | column: MBEC (μg/mL) / S. aureus

[4] = tested on: Staphylococcus aureus ATCC 25923; assay type: cell-based
Procedure: (§1) The Staphylococcus aureus ATCC 25923, Staphylococcus epidermidis ATCC 14990, Escherichia coli ATCC 25922, Pseudomonas aeruginosa ATCC 9027, Candida albicans ATCC 10231, Candida glabrata ATCC 15126, Candida lipolytica PCM 2680-FY, and Candida tropicalis PCM 2709-FY strains were acquired from the Polish Collection of Microorganisms (PCM, Polish Academy of Sciences, Wrocław, Poland) and from the American Type Culture Collection (ATCC). All the strains were stored at −80 °C in Roti-Store cryo vials and before the tests were transferred into fresh Mueller–Hinton broth (MHB, Biocorp, Warsaw, Poland) for bacteria or RPMI-1640 (Sigma-Aldrich, Steinheim, Germany) for fungi and incubated for 24 h at 37 °C. Then, the cultures were seeded on Mueller–Hinton agar (BioMaxima, Lublin, Poland) or Sabouraud dextrose agar (SDA, BioMaxima, Lublin, Poland) plates, respectively, and incubated as just mentioned. These agar cultures were used for further microbiological assays. Cell densities for all assays were adjusted spectrophotometrically (Multiskan GO Microplate Spectrophotometer, Thermo Fisher Scientific, Vantaa, Finland) at 600 and 660 nm for bacteria and fungi, respectively.
MBECs were determined on 96-well polystyrene flat-bottom plates. For this purpose, 24 h cultures of microorganisms were diluted to obtain final density 5.0 × 10^5 CFU/mL and 2.0 × 10^5 CFU/mL of bacteria and fungi, respectively. Briefly, 100 µL of cell suspension was added into the test plates. After 24 h of incubation at 37 °C the wells were rinsed three times with a phosphate buffer saline (PBS, pH 7.4) to remove non-adherent cells. Subsequently, 100 μL of the test compounds in concentration range (0.5–256 μg/mL) were added to each well. After 24 h of incubation at 37 °C, 20 μL of a cell viability reagent was added (resazurin, 4 g/L; Sigma Aldrich, St. Louis, MO, USA). The MBEC was read after 1 h. The determined values were recorded as the lowest concentration at which the reduction of resazurin (from blue to pink) was lower or equal to 10 ± 0.5% as compared to the positive (100%) and negative (0%) controls. The reduction was monitored by measuring absorbance at 570 nm (reduced) and 600 nm (oxidized) using a microplate spectrophotometer (Multiskan GO Microplate Spectrophotometer, Thermo Fisher Scientific, Vantaa, Finland). All experiments were conducted in triplicate.

[5] = tested on: Staphylococcus aureus ATCC 25923; assay type: cell-based; remark: listed apart in the source
Procedure: as §1
The MICs were determined by broth microdilution method according to the Clinical and Laboratory Standard Institute guidelines For this purpose, initial inoculums of bacteria (5 × 10^5 CFU/mL) in MHB and yeasts (2 × 10^3 CFU/mL) in RPMI-1640 with 2% D-glucose were exposed to the ranging concentration of lipopeptides (0.5–256 μg/mL) and incubated at 37 °C for 18 h and 24 h, respectively. The experiments were conducted on 96-well microtiter polystyrene plates. The growth was assessed visually after incubation and the MIC was assumed as the lowest peptide concentration at which a noticeable growth of microorganisms was inhibited. All experiments were conducted in triplicate.

[6] = tested on: E. coli ML-35 (ATCC 43827); assay type: cell-based, Escherichia coli

reduced retention time t’R [1] [min]	∆tR [1]	Structure (SMILES)	MIC S. aureus [2]	MBEC S. aureus [3]	MBEC S. aureus ([4]; ATCC 25923, 24 h) [µg/mL]	MIC S. aureus ([5]; ATCC 25923, 18 h) [µg/mL]	MIC against E. coli ML-35 [6] [µg/mL]	MBEC S. aureus ([4]; 24 h biofilm on polystyrene plates, 24 h exposure at 37 °C, resazurin, triplicate) [µg/mL]	MIC S. aureus ([5]; broth microdilution (CLSI), MHB, 5 × 10^5 CFU/mL, 37 °C, 18 h, visual, triplicate) [µg/mL]
14.89		CCCCCCCCCCCCCCCC(=O)N[C@@H](CCCCN)C(=O)N[C@@H](CCCCN)C(=O)N[C@@H](CCCCN)C(=O)N[C@@H](CCCNC(=N)N)C(N)=O [L6, C16-KKKR-NH2] (Palmitoyl-KKKR-NH2)	16 * μg/mL	32 * μg/mL					
15.01		CCCCCCCCCCCCCCCC(=O)N[C@@H](CCCCN)C(=O)N[C@@H](CCCCN)C(=O)N[C@@H](CCCNC(=N)N)C(=O)N[C@@H](CCCCN)C(N)=O [L5, C16-KKRK-NH2] (Palmitoyl-KKRK-NH2)	16 * μg/mL	32 * μg/mL					
18.05	+1.91 min	CCCCCCCCCCCCCCCC(=O)N[C@H]1CSSC[C@@H](C(N)=O)NC(=O)[C@H](CCCCN)NC(=O)[C@H](CCCCN)NC(=O)[C@H](CCCCN)NC1=O [C1, C16-CKKKC-NH2] (Palmitoyl-CKKKC-NH2; disulfide 1-5)	8 * μg/mL	64 * μg/mL					
16.51	+1.30 min	CCCCCCCCCCCCCCCC(=O)N[C@H]1CSSC[C@@H](C(N)=O)NC(=O)[C@H](CCCCN)NC(=O)[C@H](CCCCN)NC(=O)[C@H](CCCCN)NC(=O)[C@H](CCCNC(=N)N)NC1=O [C3, C16-CRKKKC-NH2] (Palmitoyl-CRKKKC-NH2; disulfide 1-6)	8 * μg/mL	128 * μg/mL					
15.58		CCCCCCCCCCCCCCCC(=O)N[C@@H](CCCNC(=N)N)C(=O)N[C@@H](CCCNC(=N)N)C(=O)N[C@@H](CCCCN)C(=O)N[C@@H](CCCCN)C(N)=O [L7, C16-RRKK-NH2] (Palmitoyl-RRKK-NH2)			128	4 (≈ 4.85 µM)			
16.32	+1.43 min	CCCCCCCCCCCCCCCC(=O)N[C@H]1CSSC[C@@H](C(N)=O)NC(=O)[C@H](CCCNC(=N)N)NC(=O)[C@H](CCCCN)NC(=O)[C@H](CCCCN)NC(=O)[C@H](CCCCN)NC1=O [C6, C16-CKKKRC-NH2] (Palmitoyl-CKKKRC-NH2; disulfide 1-6)	16 * μg/mL	64 * μg/mL					
16.83	+1.25 min	CCCCCCCCCCCCCCCC(=O)N[C@H]1CSSC[C@@H](C(N)=O)NC(=O)[C@H](CCCCN)NC(=O)[C@H](CCCCN)NC(=O)[C@H](CCCNC(=N)N)NC(=O)[C@H](CCCNC(=N)N)NC1=O [C7, C16-CRRKKC-NH2] (Palmitoyl-CRRKKC-NH2; disulfide 1-6)			128	8 (≈ 7.78 µM)			
16.14		CCCCCCCCCCCCCCCC(=O)N[C@@H](CCCCN)C(=O)N[C@@H](CCCCN)C(=O)N[C@@H](CCCCN)C(N)=O [L1, C16-KKK-NH2]	32 * μg/mL	64 * μg/mL					
16.16	+1.15 min	CCCCCCCCCCCCCCCC(=O)N[C@H]1CSSC[C@@H](C(N)=O)NC(=O)[C@H](CCCCN)NC(=O)[C@H](CCCNC(=N)N)NC(=O)[C@H](CCCCN)NC(=O)[C@H](CCCCN)NC1=O [C5, C16-CKKRKC-NH2] (Palmitoyl-CKKRKC-NH2; disulfide 1-6)	8 * μg/mL	128 * μg/mL					
15.21		CCCCCCCCCCCCCCCC(=O)N[C@@H](CCCNC(=N)N)C(=O)N[C@@H](CCCCN)C(=O)N[C@@H](CCCCN)C(=O)N[C@@H](CCCCN)C(N)=O [L3, C16-RKKK-NH2] (Palmitoyl-RKKK-NH2)	16 * μg/mL	64 * μg/mL					

Structure (SMILES)	reduced retention time t’R [1] [min]	∆tR [1]	MIC S. aureus [2]	MBEC S. aureus [3]	MBEC S. aureus ([4]; ATCC 25923, 24 h) [µg/mL]	MIC S. aureus ([5]; ATCC 25923, 18 h) [µg/mL]	MIC against E. coli ML-35 [6] [µg/mL]	MBEC S. aureus ([4]; 24 h biofilm on polystyrene plates, 24 h exposure at 37 °C, resazurin, triplicate) [µg/mL]	MIC S. aureus ([5]; broth microdilution (CLSI), MHB, 5 × 10^5 CFU/mL, 37 °C, 18 h, visual, triplicate) [µg/mL]
CCCCCCCCCCCCCCCC(=O)N[C@@H](CCCCN)C(=O)N[C@@H](CCCCN)C(=O)N[C@@H](CCCCN)C(=O)N[C@@H](CCCCN)C(N)=O [L2, C16-KKKK-NH2] (Palmitoyl-KKKK-NH2)	14.77				64	16 (≈ 20.8 µM)	4 (≈ 5.21 µM)		
CCCCCCCCCCCCCCCC(=O)N[C@H]1CSSC[C@@H](C(N)=O)NC(=O)[C@H](CCCCN)NC(=O)[C@H](CCCCN)NC(=O)[C@H](CCCCN)NC(=O)[C@H](CCCCN)NC1=O [C2, C16-CKKKKC-NH2] (Palmitoyl-CKKKKC-NH2; disulfide 1-6)	15.95	+1.18 min					8 (≈ 8.23 µM)	64	32 (≈ 32.9 µM)
CCCCCCCCCCCCCCCC(=O)N[C@@H](CCCCN)C(=O)N[C@@H](CCCNC(=N)N)C(=O)N[C@@H](CCCCN)C(=O)N[C@@H](CCCCN)C(N)=O [L4, C16-KRKK-NH2] (Palmitoyl-KRKK-NH2)	15.18				64	8 (≈ 10 µM)	4 (≈ 5.02 µM)		
CCCCCCCCCCCCCCCC(=O)N[C@H]1CSSC[C@@H](C(N)=O)NC(=O)[C@H](CCCCN)NC(=O)[C@H](CCCCN)NC(=O)[C@H](CCCNC(=N)N)NC(=O)[C@H](CCCCN)NC1=O [C4, C16-CKRKKC-NH2] (Palmitoyl-CKRKKC-NH2; disulfide 1-6)	16.10	+0.92 min			64	16 (≈ 16 µM)	8 (≈ 8 µM)		

From paper PMC7582905, “Effect of Disulfide Cyclization of Ultrashort Cationic Lipopeptides on Antimicrobial Activity and Cytotoxicity” (International Journal of Molecular Sciences, 2020)
